According to patent publication US9078446B2, “Use of N-(tetrazol-4-yl)- or N-(triazol-3-yl)arylcarboxamides or their salts for controlling unwanted plants in areas of transgenic crop plants being tolerant to HPPD inhibitor herbicides” (BAYER INTELLECTUAL PROPERTY GMBH, priority 2011, dated 2015):

What was measured:
Format in all cases: in vivo
[1] = test system: soybean plants expressing Pseudomonas fluorescens G336W mutant, FMP 27 and FMP 37; assay: Tolerance to HPPD inhibitors of soybean plants expressing tolerant HPPD enzymes; conditions: T1 soybean plants; one week after application
Description: Genes coding for the selected HPPD were obtained from a member of the group of organisms consisting of Blepharisma japonicum and Kordia algicida and cloned into an appropriate binary vector allowing the integration of DNA into the soybean genome, under the control of the CaMV35S promoter. For the respective cloning procedures, see WO2011076882 (PCT/EP2010/070567), Example 9; for Blepharisma japonicum (FMP37) and WO2011076889 (PCT/EP2010/070575), Example 9 for Kordia algicida (FMP27).
Between the sequence corresponding to the promoter and the sequence coding for the HPPD a DNA sequence coding for a transit peptide to the chloroplast was inserted, in order to add at the N-terminal extremity of the protein a target signal to allow the localization of the HPPD protein into the plant chloroplast. By using the vectors “pFCO112” (Blepharisma japonicum, WO2011076882), pFCO116 (Korida algicida, WO2011076889), and pFCO117” (see Example B2, above), soybean transformation was achieved as described in Example 10 of WO2011076882 (PCT/EP2010/070567) for Blepharisma japonicum (FMP37) and WO2011076889 (PCT/EP2010/070575) for Kordia algicida (FMP27). Seeds from TO events showing tolerance to tembotrione were harvested.
T1 Soybean seeds were transferred to single pots and grown under standard cultivation conditions, see WO2011076882.
Two weeks later, plants will be sprayed with several N-(tetrazol-4-yl)- or N-(triazol-3-yl)arylcarboxamides as defined above.

[2] = test system: transgenic tobacco plants expressing tolerant HPPD enzymes; assay: Tolerance of tobacco plants expressing tolerant HPPD enzymes (all transgenes); conditions: for tolerance of the transgenic tobacco plants (symptoms due to application of the herbicide): T1 plants sprayed, evaluated one week after application; for sensitivity of transgenic tobacco plants compared to wild type (wt) plants: all tested independent lines, agronomically relevant dose
Description: (§1) Genes coding for the selected HPPD were obtained from a member of the group of organisms consisting of Avena sativa, Pseudomonas fluorescens mutant G336W, Blepharisma japonicum and Kordia algicida and cloned into the binary vector pBin19 allowing the integration of DNA into the tobacco genome, under the control of the CaMV35S promoter. For the cloning procedures, see A2 above for Avena sativa, see B2 above for Pseudomonas fluorescens, mutant G336W, see PCT/EP2010/070567 (published as WO 2011/076882, Example 5; for Blepharisma japonicum (FMP37) and see PCT/EP2010/070575, Example 5 for Kordia algicida (FMP27). Between the sequence corresponding to the promoter and the sequence coding for the HPPD a DNA sequence coding for a transit peptide to the chloroplast was inserted, in order to add at the N-terminal extremity of the protein a target signal to allow the localization of the HPPD protein into the plant chloroplast.
(§2) Seeds harvested from TO transformants will be put on standard soil for germination. Three weeks later plantlets (T1) will be transferred to single pots and grown under standard cultivation conditions (PCT/EP2010/070575, published as WO 2011/076889). Two weeks later, plants were sprayed with several N-(tetrazol-4-yl)- or N-(triazol-3-yl)arylcarboxamides as defined above.
(§3) Tables F1 to F5: Evaluation of the Symptoms Observed Due to the Application of the Herbicides on Transgenic Tobacco Plants, Expressing the Mutant Pseudomonas fluorescens HPPD G336W, the Avena HPPD (AvHPPD), the HPPD from Kordia algicida FMP27 or the HPPD from Blepharisma japonicum (FMP37), Compared to Non-Tranformed Tobacco Plants (“Wt”).
(§4) The herbicides (with “g Al/ha” meaning “g active ingredient/ha”) were applied on 8 to 10 plants originated from 1 to 3 independent transgenic events per transgene.
(§5) The symptoms were evaluated and classified as following: • 3=Very strong damage • 2=Strong damage • 1=Light and transient damage • 0=No damage

[3] = test system: non-transformed tobacco plants (Wt); assay: Symptoms due to herbicide application on tobacco plants (damage classes 0-3); conditions: one week after application
Description: as §2, §3, §4, §5

[4] = test system: transgenic tobacco plants expressing HPPD from Blepharisma japonicum (FMP37); assay: Symptoms due to herbicide application on transgenic tobacco plants (damage classes 0-3); conditions: one week after application
Description: as §1, §2, §3, §4, §5

[5] = test system: transgenic tobacco plants expressing mutant Pseudomonas fluorescens HPPD G336W (PfHPPD-G336W); assay: as above; conditions: PfHPPD-G336W line 646, one week after application
Description: as §1, §2, §3, §4, §5

[6] = test system: transgenic tobacco plants expressing Avena HPPD (AvHPPD); assay: as above; conditions: AvHPPD line 659, one week after application
Description: as §1, §2, §3, §4, §5

[7] = test system: transgenic tobacco plants expressing HPPD from Kordia algicida FMP27; assay: as above; conditions: one week after application
Description: as §1, §2, §3, §4, §5

[8] = test system: cotton plants expressing FMP 27 and FMP 37; assay: Tolerance to HPPD inhibitors of cotton plants expressing tolerant HPPD enzymes; conditions: T1 cotton plants; one week after application
Description: Genes coding for the selected HPPD were obtained from a member of the group of organisms consisting of Blepharisma japonicum and Kordia algicida and cloned into an appropriate binary vector allowing the integration of DNA into the cotton genome, under the control of the CaMV35S promoter. For the respective cloning procedures, see WO2011076882 (PCT/EP2010/070567), Example 11; for Blepharisma japonicum (FMP37) and WO2011076889 (PCT/EP2010/070575), Example 11 for Kordia algicida (FMP27).
Between the sequence corresponding to the promoter and the sequence coding for the HPPD a DNA sequence coding for a transit peptide to the chloroplast was inserted, in order to add at the N-terminal extremity of the protein a target signal to allow the localization of the HPPD protein into the plant chloroplast. Cotton transformation was achieved as described in Example 12 of WO2011076882 (PCT/EP2010/070567) for Blepharisma japonicum (FMP37) and WO2011076889 (PCT/EP2010/070575) for Kordia algicida (FMP27). Seeds from T0 events showing tolerance to tembotrione were harvested.
T1 Cotton seeds were transferred to single pots and grown under standard cultivation conditions, see WO2011076882 (PCT/EP2010/070567) for Blepharisma japonicum (FMP37) and WO2011076889 (PCT/EP2010/070575) for Kordia algicida (FMP27).
At least 4 weeks later, plants will be sprayed with several N-(tetrazol-4-yl)- or N-(triazol-3-yl)arylcarboxamides as defined above.

[9] = 50 g AI/ha, WP20 + oilseed rape methyl ester + ammonium sulfate

Cn1nnnc1NC(=O)c1ccc(C(F)(F)F)cc1S(C)(=O)=O [Compound 4-25]
9: number of plants with Damage 0 (No damage) ([7]; FMP27 line 733, 50 g Al/ha)
0: number of plants with Damage 0 (No damage) ([3]; 50 g Al/ha) | number of plants with Damage 1 (Light and transient damage) ([3]; 50 g Al/ha) | number of plants with Damage 2 (Strong damage) ([3]; 50 g Al/ha) | number of plants with Damage 1 (Light and transient damage) ([4]; FMP37 line 749, 50 g Al/ha) | number of plants with Damage 2 (Strong damage) ([4]; FMP37 line 749, 50 g Al/ha) | number of plants with Damage 1 (Light and transient damage) ([4]; FMP37 line 795, 50 g Al/ha) | number of plants with Damage 1 (Light and transient damage) ([5]; 50 g Al/ha) | number of plants with Damage 2 (Strong damage) ([5]; 50 g Al/ha) | number of plants with Damage 3 (Very strong damage) ([5]; 50 g Al/ha) | number of plants with Damage 2 (Strong damage) ([6]; 50 g Al/ha) | number of plants with Damage 2 (Strong damage) ([7]; FMP27 line 733, 50 g Al/ha) | number of plants with Damage 3 (Very strong damage) ([7]; FMP27 line 733, 50 g Al/ha) | number of plants with Damage 2 (Strong damage) ([7]; FMP27 line 734, 50 g Al/ha) | number of plants with Damage 2 (Strong damage) ([7]; FMP27 line 735, 50 g Al/ha) | number of plants with Damage 3 (Very strong damage) ([7]; FMP27 line 735, 50 g Al/ha)
5: number of plants with Damage 1 (Light and transient damage) ([4]; FMP37 line 754, 50 g Al/ha) | number of plants with Damage 0 (No damage) ([7]; FMP27 line 735, 50 g Al/ha)
good tolerance: tolerance of the transgenic tobacco plants (symptoms due to application of the herbicide) [2]
1: number of plants with Damage 2 (Strong damage) ([4]; FMP37 line 754, 50 g Al/ha) | number of plants with Damage 3 (Very strong damage) ([4]; FMP37 line 754, 50 g Al/ha) | number of plants with Damage 2 (Strong damage) ([4]; FMP37 line 795, 50 g Al/ha) | number of plants with Damage 1 (Light and transient damage) ([6]; 50 g Al/ha) | number of plants with Damage 1 (Light and transient damage) ([7]; FMP27 line 733, 50 g Al/ha) | number of plants with Damage 3 (Very strong damage) ([7]; FMP27 line 734, 50 g Al/ha)
superior tolerance: tolerance of transgenic plants compared to the wild-type soybean plants [1] | tolerance of transgenic plants compared to the wild-type cotton plants [8]
6: number of plants with Damage 0 (No damage) ([6]; 50 g Al/ha) | number of plants with Damage 0 (No damage) ([7]; FMP27 line 734, 50 g Al/ha)
less sensitive: sensitivity of transgenic tobacco plants compared to wild type (wt) plants [2]
2: number of plants with Damage 3 (Very strong damage) ([4]; FMP37 line 749, 50 g Al/ha) | number of plants with Damage 3 (Very strong damage) ([4]; FMP37 line 795, 50 g Al/ha)
7: number of plants with Damage 0 (No damage) ([4]; FMP37 line 795, 50 g Al/ha)
3: number of plants with Damage 0 (No damage) ([4]; FMP37 line 754, 50 g Al/ha) | number of plants with Damage 3 (Very strong damage) ([6]; 50 g Al/ha) | number of plants with Damage 1 (Light and transient damage) ([7]; FMP27 line 734, 50 g Al/ha) | number of plants with Damage 1 (Light and transient damage) ([7]; FMP27 line 735, 50 g Al/ha)
8: number of plants with Damage 0 (No damage) ([4]; FMP37 line 749, 50 g Al/ha)
10: number of plants with Damage 3 (Very strong damage) ([3]; 50 g Al/ha) | number of plants with Damage 0 (No damage) ([5]; 50 g Al/ha)

COCc1c(S(C)(=O)=O)ccc(C(=O)Nc2nnnn2C)c1Cl [Compound 4-253]
less sensitive: sensitivity of transgenic tobacco plants compared to wild type (wt) plants [2]
9: number of plants with Damage 0 (No damage) ([5]; 50 g AI/ha)
good tolerance: tolerance of the transgenic tobacco plants (symptoms due to application of the herbicide) [2]
2: number of plants with Damage 1 (Light and transient damage) ([4]; 50 g AI/ha, FMP37 line 749) | number of plants with Damage 1 (Light and transient damage) ([4]; 50 g AI/ha, FMP37 line 754) | number of plants with Damage 2 (Strong damage) ([7]; 50 g AI/ha, FMP27 line 733) | number of plants with Damage 2 (Strong damage) ([7]; 50 g AI/ha, FMP27 line 734) | number of plants with Damage 0 (No damage) ([7]; 50 g AI/ha, FMP27 line 735)
0: number of plants with Damage 0 (No damage) [3, 9] | number of plants with Damage 1 (Light and transient damage) [3, 9] | number of plants with Damage 2 (Strong damage) [3, 9] | number of plants with Damage 2 (Strong damage) ([4]; 50 g AI/ha, FMP37 line 749) | number of plants with Damage 2 (Strong damage) ([4]; 50 g AI/ha, FMP37 line 795) | number of plants with Damage 1 (Light and transient damage) ([5]; 50 g AI/ha) | number of plants with Damage 2 (Strong damage) ([5]; 50 g AI/ha) | number of plants with Damage 1 (Light and transient damage) ([6]; 50 g AI/ha) | number of plants with Damage 2 (Strong damage) ([6]; 50 g AI/ha) | number of plants with Damage 3 (Very strong damage) ([7]; 50 g AI/ha, FMP27 line 733) | number of plants with Damage 2 (Strong damage) ([7]; 50 g AI/ha, FMP27 line 735)
6: number of plants with Damage 0 (No damage) ([4]; 50 g AI/ha, FMP37 line 754) | number of plants with Damage 0 (No damage) ([7]; 50 g AI/ha, FMP27 line 734)
5: number of plants with Damage 1 (Light and transient damage) ([7]; 50 g AI/ha, FMP27 line 735)
7: number of plants with Damage 0 (No damage) ([4]; 50 g AI/ha, FMP37 line 749) | number of plants with Damage 3 (Very strong damage) ([6]; 50 g AI/ha)
4: number of plants with Damage 1 (Light and transient damage) ([4]; 50 g AI/ha, FMP37 line 795) | number of plants with Damage 0 (No damage) ([7]; 50 g AI/ha, FMP27 line 733) | number of plants with Damage 1 (Light and transient damage) ([7]; 50 g AI/ha, FMP27 line 733)
3: number of plants with Damage 0 (No damage) ([4]; 50 g AI/ha, FMP37 line 795) | number of plants with Damage 3 (Very strong damage) ([4]; 50 g AI/ha, FMP37 line 795) | number of plants with Damage 0 (No damage) ([6]; 50 g AI/ha) | number of plants with Damage 3 (Very strong damage) ([7]; 50 g AI/ha, FMP27 line 735)
1: number of plants with Damage 3 (Very strong damage) ([4]; 50 g AI/ha, FMP37 line 749) | number of plants with Damage 2 (Strong damage) ([4]; 50 g AI/ha, FMP37 line 754) | number of plants with Damage 3 (Very strong damage) ([4]; 50 g AI/ha, FMP37 line 754) | number of plants with Damage 3 (Very strong damage) ([5]; 50 g AI/ha) | number of plants with Damage 1 (Light and transient damage) ([7]; 50 g AI/ha, FMP27 line 734) | number of plants with Damage 3 (Very strong damage) ([7]; 50 g AI/ha, FMP27 line 734)
10: number of plants with Damage 3 (Very strong damage) [3, 9]
superior tolerance: tolerance of transgenic plants compared to the wild-type soybean plants [1] | tolerance of transgenic plants compared to the wild-type cotton plants [8]
